# Source: DBAASP
# Experiments:
# Assay in all cases: ≥ marks a high value that may be exact or a test limit, other limits are often not marked, values filed in µg/mL are converted to µM
# [1] = test system: Staphylococcus aureus ATCC 25923
# [2] = test system: Candida albicans ATCC 2002
# [3] = test system: Pseudomonas aeruginosa CMCCB 10104
# [4] = test system: Escherichia coli ATCC 25922
# [5] = test system: Escherichia coli ATCC 25726
# Escherichia coli BW25113 = test system: Escherichia coli BW25113
# [6] = test system: Klebsiella pneumoniae ATCC 700603
# [7] = test system: Candida albicans ATCC 90028
# [8] = test system: Pseudomonas aeruginosa ATCC 27853
# [9] = test system: Salmonella enterica serovar Typhimurium
# [10] = test system: Bacillus subtilis KCTC 3068
# [11] = test system: Pseudomonas aeruginosa KCTC 1637
# [12] = test system: Staphylococcus aureus KCTC 1621
# Candida albicans = test system: Candida albicans
# Escherichia coli UB1005 = test system: Escherichia coli UB1005
# [13] = test system: Escherichia coli KCTC 1682
# [14] = test system: Staphylococcus epidermidis KCTC 1917
# [15] = test system: Enterococcus faecalis ATCC 29212
# [16] = test system: Staphylococcus epidermidis
# [17] = test system: Pseudomonas aeruginosa H103
# [18] = test system: Salmonella typhimurium KCTC 1926
compound,measurement,setting,value
CC[C@H](C)[C@H](N)C(=O)N1CCC[C@H]1C(=O)N[C@@H](Cc1c[nH]c2ccccc12)C(=O)N[C@@H](CCCCN)C(=O)N[C@@H](CC(C)C)C(=O)N1CCC[C@H]1C(=O)N[C@@H](C)C(=O)N[C@H](C(=O)N[C@@H](Cc1ccccc1)C(=O)N[C@@H](CCCN=C(N)N)C(=O)N1CCC[C@H]1C(=O)N[C@H](C(=O)N[C@@H](CCC(=O)O)C(=O)N[C@@H](CCCN=C(N)N)C(=O)N1CCC[C@H]1C(=O)N[C@@H](Cc1ccccc1)C(=O)N[C@@H](CO)C(=O)N[C@@H](CCCCN)C(=O)N1CCC[C@H]1C(=O)N[C@@H](Cc1ccccc1)C(=O)N[C@@H](CS)C(=O)N[C@@H](CCCN=C(N)N)C(=O)N[C@@H](CCCCN)C(=O)N[C@@H](CC(=O)O)C(=O)O)C(C)C)[C@@H](C)O [IPWKLPATFRPVERPFSKPFCRKD],MIC,[1],34.3 µM
same,MIC,[2],≥ 34.3 µM
same,MIC,[3],≥ 34.3 µM
same,MIC,[4],> 34.3 µM
CC[C@H](C)[C@H](NC(=O)CN)C(=O)N[C@@H](Cc1ccccc1)C(=O)N[C@@H](CO)C(=O)N[C@@H](CC(C)C)C(=O)N[C@H](C(=O)N[C@@H](CCCCN)C(=O)NCC(=O)N[C@@H](C)C(=O)N[C@@H](C)C(=O)N[C@@H](CCC(N)=O)C(=O)N[C@@H](CC(C)C)C(=O)N[C@H](C(=O)NCC(=O)N[C@@H](CCCCN)C(=O)N[C@H](C(=O)N[C@H](C(=O)N[C@@H](C)C(=O)N[C@@H](CCCCN)C(=O)N[C@@H](CCC(=O)O)C(=O)N[C@@H](C)C(=O)NCC(=O)N[C@@H](CCCCN)C(=O)N[C@H](C(=O)NCC(=O)N[C@@H](CC(C)C)C(=O)N[C@@H](CCC(=O)O)C(=O)N[C@@H](CC(C)C)C(=O)N[C@@H](CCSC)C(=O)N[C@@H](C)C(=O)N[C@H]1CSSC[C@@H](C(=O)O)NC(=O)[C@H](CCC(N)=O)NC(=O)[C@H](CCCCN)NC(=O)[C@H]([C@@H](C)O)NC(=O)[C@H](C(C)C)NC(=O)[C@H](CCCCN)NC1=O)[C@@H](C)O)C(C)C)[C@@H](C)O)[C@@H](C)CC)[C@@H](C)CC [GIFSLIKGAAQLIGKTVAKEAGKTGLELMACKVTKQC],MIC,[1],32.8 µM
same,MIC,[5],16.4 µM
CSCC[C@H](NC(=O)[C@H](Cc1ccccc1)NC(=O)[C@H](CCCCN)NC(=O)CNC(=O)[C@H](C)NC(=O)[C@H](C)NC(=O)[C@H](CCCCN)NC(=O)[C@H](CC(C)C)NC(=O)CNC(=O)[C@H](Cc1ccccc1)NC(=O)[C@H](CCCCN)NC(=O)[C@H](CC(C)C)NC(=O)[C@H](C)NC(=O)[C@H](CCCCN)NC(=O)CNC(=O)[C@H](CC(C)C)NC(=O)[C@H](CC(C)C)NC(=O)[C@H](CO)NC(=O)CNC(=O)[C@H](CC(C)C)NC(=O)CN)C(=O)NCC(=O)NCC(=O)N[C@@H](CCC(=O)O)C(=O)N1CCC[C@H]1C(=O)N[C@@H](CCC(N)=O)C(=O)N[C@@H](CCC(N)=O)C(=O)O [GLGSLLGKALKFGLKAAGKFMGGEPQQ],MIC,[1],25 µM
same,MIC,[5],25 µM
CC[C@H](C)[C@H](NC(=O)[C@H](CCCN=C(N)N)NC(=O)[C@@H]1CCCN1C(=O)[C@@H](NC(=O)[C@H](CCCN=C(N)N)NC(=O)[C@@H]1CCCN1C(=O)[C@@H](NC(=O)[C@@H]1CCCN1C(=O)[C@H](Cc1ccccc1)NC(=O)[C@@H]1CCCN1C(=O)[C@@H]1CCCN1C(=O)[C@@H]1CCCN1C(=O)[C@H](Cc1ccccc1)NC(=O)[C@H](CCCN=C(N)N)NC(=O)[C@@H]1CCCN1C(=O)[C@@H](N)CCCN=C(N)N)[C@@H](C)CC)[C@@H](C)CC)C(=O)N1CCC[C@H]1C(=O)O [RPRFPPPFPIPRIPRIP],MIC,Escherichia coli BW25113,≥ 64 µM
CC[C@H](C)[C@H](NC(=O)CNC(=O)[C@H](CCCCN)NC(=O)[C@H](C)NC(=O)[C@@H](NC(=O)[C@H](CCCCN)NC(=O)[C@H](CCCCN)NC(=O)[C@H](CC(C)C)NC(=O)[C@@H](NC(=O)[C@H](CC(=O)O)NC(=O)[C@H](CCCCN)NC(=O)[C@@H](NC(=O)[C@H](Cc1ccccc1)NC(=O)CNC(=O)[C@@H]1CCCN1C(=O)[C@@H](NC(=O)[C@H](CCCCN)NC(=O)[C@@H](N)CC(C)C)[C@@H](C)CC)C(C)C)[C@@H](C)O)C(C)C)C(=O)N[C@@H](Cc1ccccc1)C(=O)N[C@@H](CO)C(=O)N[C@@H](C)C(=O)N[C@H](C(=O)N[C@@H](C)C(=O)NCC(=O)N[C@@H](C)C(=O)N[C@@H](CCSC)C(=O)N[C@H](C(=O)N1CCC[C@H]1C(=O)N[C@@H](CO)C(=O)O)[C@@H](C)O)C(C)C [LKIPGFVKDTLKKVAKGIFSAVAGAMTPS],MIC,[1],40 µM
same,MIC,[6],20 µM
same,MIC,[7],≥ 80 µM
same,MIC,[5],20 µM
same,MIC,[8],20 µM
CC[C@H](C)[C@H](NC(=O)[C@@H]1CCCN1C(=O)[C@H](CCCN=C(N)N)NC(=O)[C@H](CCCN=C(N)N)NC(=O)[C@H](CCCN=C(N)N)NC(=O)[C@@H](NC(=O)[C@@H]1CCCN1C(=O)[C@@H]1CCCN1C(=O)[C@H](CCCN=C(N)N)NC(=O)[C@H](Cc1ccccc1)NC(=O)[C@@H](N)CCCN=C(N)N)[C@@H](C)CC)C(=O)N[C@@H](CCCN=C(N)N)C(=O)N1CCC[C@H]1C(=O)N1CCC[C@H]1C(=O)N[C@@H](Cc1ccccc1)C(=O)N[C@@H](Cc1ccc(O)cc1)C(=O)N1CCC[C@H]1C(=O)O [RFRPPIRRRPIRPPFYP],MIC,Escherichia coli BW25113,8 µM
CC[C@H](C)[C@H](NC(=O)CN)C(=O)NCC(=O)N[C@@H](CCCCN)C(=O)N[C@@H](Cc1ccccc1)C(=O)N[C@@H](CC(C)C)C(=O)N[C@@H](Cc1cnc[nH]1)C(=O)N[C@@H](CO)C(=O)N[C@@H](C)C(=O)NCC(=O)N[C@@H](CCCCN)C(=O)N[C@@H](Cc1ccccc1)C(=O)NCC(=O)N[C@@H](CCCCN)C(=O)N[C@@H](C)C(=O)N[C@@H](Cc1ccccc1)C(=O)N[C@@H](CC(C)C)C(=O)NCC(=O)N[C@@H](CCC(=O)O)C(=O)N[C@H](C(=O)N[C@@H](CCSC)C(=O)N[C@@H](CCCCN)C(=O)N[C@@H](CO)C(=O)O)C(C)C [GIGKFLHSAGKFGKAFLGEVMKS],MIC,[1],> 200 µM
same,MIC,[7],≥ 100 µM
same,MIC,[4],50 µM
same,MIC,[5],≥ 50 µM
CC[C@H](C)[C@H](NC(=O)[C@@H]1CCCN1C(=O)[C@H](Cc1c[nH]c2ccccc12)NC(=O)[C@H](CCCN=C(N)N)NC(=O)[C@H](Cc1ccccc1)NC(=O)[C@@H](N)CCCN=C(N)N)C(=O)N[C@@H](CCCN=C(N)N)C(=O)N[C@@H](CCCN=C(N)N)C(=O)N[C@@H](CCCN=C(N)N)C(=O)N1CCC[C@H]1C(=O)N[C@H](C(=O)N[C@@H](CCCN=C(N)N)C(=O)N1CCC[C@H]1C(=O)N1CCC[C@H]1C(=O)N[C@@H](Cc1ccccc1)C(=O)N[C@@H](Cc1ccc(O)cc1)C(=O)N[C@@H](Cc1c[nH]c2ccccc12)C(=O)O)[C@@H](C)CC [RFRWPIRRRPIRPPFYW],MIC,Escherichia coli BW25113,4 µM
CSCC[C@H](NC(=O)[C@H](CC(C)C)NC(=O)[C@@H]1CCCN1C(=O)CNC(=O)[C@H](CC(C)C)NC(=O)[C@H](CC(C)C)NC(=O)[C@H](C)NC(=O)CNC(=O)[C@H](CC(C)C)NC(=O)[C@@H](N)Cc1ccccc1)C(=O)N[C@@H](CC(N)=O)C(=O)N[C@@H](CC(C)C)C(=O)N[C@@H](CC(C)C)C(=O)N[C@@H](CCC(N)=O)C(N)=O [FLGALLGPLMNLLQ],MIC,[1],> 160 µM
same,MIC,[5],≥ 160 µM
CC[C@H](C)[C@H](NC(=O)[C@H](CCCN=C(N)N)NC(=O)[C@H](CCCN=C(N)N)NC(=O)[C@H](CC(C)C)NC(=O)[C@@H](N)CCCN=C(N)N)C(=O)N[C@H](C(=O)N[C@H](C(=O)N[C@H](C(=O)N[C@@H](CCCN=C(N)N)C(=O)N[C@H](C(=O)N[C@@H](CCCN=C(N)N)C(=O)N[C@@H](CCCN=C(N)N)C(N)=O)C(C)C)[C@@H](C)CC)C(C)C)C(C)C [RLRRIVVIRVRR],MIC,[9],5.03 µM
same,MIC,[1],5.03 µM
same,MIC,[10],3.93 µM
same,MIC,[11],3.93 µM
same,MIC,[12],1.97 µM
same,MIC,Candida albicans,19.5 µM
same,MIC,Escherichia coli UB1005,1.26 µM
same,MIC,[13],7.85 µM
same,MIC,[14],1.97 µM
same,MIC,[15],2.51 µM
same,MIC,[16],1.26 µM
same,MIC,[17],5.03 µM
same,MIC,[18],0.98 µM
